From ChEMBL document CHEMBL1145498, “A systematic interaction map of validated kinase inhibitors with Ser/Thr kinases” (Proc Natl Acad Sci U S A, 2007)

Target: Dual specificity mitogen-activated protein kinase kinase 2 (Homo sapiens, UniProt P36507)
Sequence (P36507 whole entry): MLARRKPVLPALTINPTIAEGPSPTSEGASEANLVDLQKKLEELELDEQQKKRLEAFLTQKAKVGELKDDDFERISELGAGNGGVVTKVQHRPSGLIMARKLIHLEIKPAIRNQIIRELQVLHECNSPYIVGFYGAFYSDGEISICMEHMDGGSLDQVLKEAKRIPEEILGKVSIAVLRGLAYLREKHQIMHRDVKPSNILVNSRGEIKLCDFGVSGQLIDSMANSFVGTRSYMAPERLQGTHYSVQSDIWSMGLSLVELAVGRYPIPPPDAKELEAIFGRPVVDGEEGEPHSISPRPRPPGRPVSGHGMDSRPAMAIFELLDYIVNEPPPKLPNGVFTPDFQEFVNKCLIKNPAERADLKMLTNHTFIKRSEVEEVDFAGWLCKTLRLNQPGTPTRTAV

SMILES | ΔTm [°C]
O=C(Nc1cccc(Nc2cc(Nc3cccc(C(F)(F)F)c3)ncn2)c1)C1CC1 | 1
CN(c1cccnc1)c1cc2c(Nc3ccc(F)c(Cl)c3)c(C#N)cnc2cn1 | 2.1
COc1ccc(Cl)cc1NC(=O)Nc1cc(C)nc2ccccc12 | 0.2
O=C(Nc1cccc(Nc2nccc(Nc3cccc(C(F)(F)F)c3)n2)c1)C1CC1 [ANILINOPYRIMIDINE1] | 0.8

Target: Calcium/calmodulin-dependent protein kinase type II subunit delta (Homo sapiens) (UniProt Q13557)

SMILES | ΔTm [°C]
O=C(Nc1cccc(Nc2cc(Nc3cccc(C(F)(F)F)c3)ncn2)c1)C1CC1 | -2
CN(c1cccnc1)c1cc2c(Nc3ccc(F)c(Cl)c3)c(C#N)cnc2cn1 | 2.7
COc1ccc(Cl)cc1NC(=O)Nc1cc(C)nc2ccccc12 | 0.9
O=C(Nc1cccc(Nc2nccc(Nc3cccc(C(F)(F)F)c3)n2)c1)C1CC1 [ANILINOPYRIMIDINE1] | 0.6

Target: Serine/threonine-protein kinase PLK1 (Homo sapiens) (UniProt P53350)

SMILES | ΔTm [°C]
O=C(Nc1cccc(Nc2cc(Nc3cccc(C(F)(F)F)c3)ncn2)c1)C1CC1 | 0
CN(c1cccnc1)c1cc2c(Nc3ccc(F)c(Cl)c3)c(C#N)cnc2cn1 | 0.7
COc1ccc(Cl)cc1NC(=O)Nc1cc(C)nc2ccccc12 | 0.9
O=C(Nc1cccc(Nc2nccc(Nc3cccc(C(F)(F)F)c3)n2)c1)C1CC1 [ANILINOPYRIMIDINE1] | 3.3

Target: T1, Myotonin-protein kinase (Homo sapiens) (UniProt Q09013)
T1 sequence (whole entry): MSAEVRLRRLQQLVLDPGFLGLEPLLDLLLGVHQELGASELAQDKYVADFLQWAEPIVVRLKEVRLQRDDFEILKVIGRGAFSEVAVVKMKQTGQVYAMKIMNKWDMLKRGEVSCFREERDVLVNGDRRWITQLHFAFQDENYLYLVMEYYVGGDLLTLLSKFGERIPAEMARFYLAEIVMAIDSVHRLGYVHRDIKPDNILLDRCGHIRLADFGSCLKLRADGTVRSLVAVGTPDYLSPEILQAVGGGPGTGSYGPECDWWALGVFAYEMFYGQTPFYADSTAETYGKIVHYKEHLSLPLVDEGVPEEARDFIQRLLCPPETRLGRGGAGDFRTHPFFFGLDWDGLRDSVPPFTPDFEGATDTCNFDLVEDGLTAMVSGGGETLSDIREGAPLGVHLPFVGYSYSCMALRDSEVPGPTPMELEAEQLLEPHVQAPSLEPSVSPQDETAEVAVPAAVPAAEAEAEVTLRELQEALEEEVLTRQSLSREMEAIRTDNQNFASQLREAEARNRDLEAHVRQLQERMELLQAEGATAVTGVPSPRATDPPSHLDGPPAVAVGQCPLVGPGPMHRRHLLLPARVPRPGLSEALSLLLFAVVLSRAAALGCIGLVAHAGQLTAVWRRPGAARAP

SMILES | ΔTm [°C]
O=C(Nc1cccc(Nc2cc(Nc3cccc(C(F)(F)F)c3)ncn2)c1)C1CC1 | 4
CN(c1cccnc1)c1cc2c(Nc3ccc(F)c(Cl)c3)c(C#N)cnc2cn1 | 5.3
COc1ccc(Cl)cc1NC(=O)Nc1cc(C)nc2ccccc12 | 0.1
O=C(Nc1cccc(Nc2nccc(Nc3cccc(C(F)(F)F)c3)n2)c1)C1CC1 [ANILINOPYRIMIDINE1] | 9.3

Target: Calcium/calmodulin-dependent protein kinase type 1G (Homo sapiens) (UniProt Q96NX5)
Sequence (Q96NX5 whole entry): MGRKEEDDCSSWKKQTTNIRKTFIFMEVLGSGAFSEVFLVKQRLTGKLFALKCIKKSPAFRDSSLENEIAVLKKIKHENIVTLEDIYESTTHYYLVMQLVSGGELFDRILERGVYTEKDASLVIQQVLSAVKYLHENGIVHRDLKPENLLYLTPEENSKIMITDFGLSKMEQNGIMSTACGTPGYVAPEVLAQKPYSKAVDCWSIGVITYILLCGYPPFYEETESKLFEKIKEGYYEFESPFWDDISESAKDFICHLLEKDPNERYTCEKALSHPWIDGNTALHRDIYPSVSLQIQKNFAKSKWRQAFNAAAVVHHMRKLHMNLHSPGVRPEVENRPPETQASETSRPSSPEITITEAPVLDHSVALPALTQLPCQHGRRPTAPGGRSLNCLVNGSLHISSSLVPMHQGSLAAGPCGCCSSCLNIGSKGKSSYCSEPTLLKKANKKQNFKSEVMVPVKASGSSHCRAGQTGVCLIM

SMILES | ΔTm [°C]
O=C(Nc1cccc(Nc2cc(Nc3cccc(C(F)(F)F)c3)ncn2)c1)C1CC1 | 3.7
CN(c1cccnc1)c1cc2c(Nc3ccc(F)c(Cl)c3)c(C#N)cnc2cn1 | 2.4
COc1ccc(Cl)cc1NC(=O)Nc1cc(C)nc2ccccc12 | 4.4
O=C(Nc1cccc(Nc2nccc(Nc3cccc(C(F)(F)F)c3)n2)c1)C1CC1 [ANILINOPYRIMIDINE1] | 3.8

Target: Calcium/calmodulin-dependent protein kinase type II subunit gamma (Homo sapiens) (UniProt Q13555)
Sequence (Q13555 whole entry): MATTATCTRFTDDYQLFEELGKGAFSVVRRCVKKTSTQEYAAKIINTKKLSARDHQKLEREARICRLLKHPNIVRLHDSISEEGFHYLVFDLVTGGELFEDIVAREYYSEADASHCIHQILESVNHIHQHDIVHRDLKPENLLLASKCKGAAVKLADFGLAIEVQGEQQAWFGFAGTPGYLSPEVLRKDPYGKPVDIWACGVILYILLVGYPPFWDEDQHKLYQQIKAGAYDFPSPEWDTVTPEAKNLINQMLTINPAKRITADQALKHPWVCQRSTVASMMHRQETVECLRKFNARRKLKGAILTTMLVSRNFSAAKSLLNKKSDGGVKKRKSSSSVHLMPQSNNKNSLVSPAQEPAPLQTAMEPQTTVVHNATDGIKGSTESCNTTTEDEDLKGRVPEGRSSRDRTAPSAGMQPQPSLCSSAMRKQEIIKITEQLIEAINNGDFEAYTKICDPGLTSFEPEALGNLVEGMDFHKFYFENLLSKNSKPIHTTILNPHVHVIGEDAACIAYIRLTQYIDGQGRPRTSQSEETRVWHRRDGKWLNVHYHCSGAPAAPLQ

SMILES | ΔTm [°C]
O=C(Nc1cccc(Nc2cc(Nc3cccc(C(F)(F)F)c3)ncn2)c1)C1CC1 | -2
CN(c1cccnc1)c1cc2c(Nc3ccc(F)c(Cl)c3)c(C#N)cnc2cn1 | 1.9
COc1ccc(Cl)cc1NC(=O)Nc1cc(C)nc2ccccc12 | -0.5
O=C(Nc1cccc(Nc2nccc(Nc3cccc(C(F)(F)F)c3)n2)c1)C1CC1 [ANILINOPYRIMIDINE1] | 0.2

Target: T2, Dual specificity mitogen-activated protein kinase kinase 6 (Homo sapiens) (UniProt P52564)
T2 sequence (whole entry): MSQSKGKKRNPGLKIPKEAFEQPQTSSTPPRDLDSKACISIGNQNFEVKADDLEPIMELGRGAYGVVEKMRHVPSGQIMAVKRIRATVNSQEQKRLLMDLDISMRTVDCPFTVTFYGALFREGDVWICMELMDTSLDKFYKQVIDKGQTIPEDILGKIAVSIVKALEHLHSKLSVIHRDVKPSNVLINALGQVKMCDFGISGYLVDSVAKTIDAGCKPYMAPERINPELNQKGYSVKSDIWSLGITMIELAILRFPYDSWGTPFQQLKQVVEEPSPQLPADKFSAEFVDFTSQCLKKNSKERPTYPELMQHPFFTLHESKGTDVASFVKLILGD

SMILES | ΔTm [°C]
O=C(Nc1cccc(Nc2cc(Nc3cccc(C(F)(F)F)c3)ncn2)c1)C1CC1 | 2.1
CN(c1cccnc1)c1cc2c(Nc3ccc(F)c(Cl)c3)c(C#N)cnc2cn1 | 0.4
COc1ccc(Cl)cc1NC(=O)Nc1cc(C)nc2ccccc12 | -0.3
O=C(Nc1cccc(Nc2nccc(Nc3cccc(C(F)(F)F)c3)n2)c1)C1CC1 [ANILINOPYRIMIDINE1] | 0.2

Target: Dual specificity protein kinase CLK3 (Homo sapiens) (UniProt P49761)
Sequence (P49761 whole entry, looked up): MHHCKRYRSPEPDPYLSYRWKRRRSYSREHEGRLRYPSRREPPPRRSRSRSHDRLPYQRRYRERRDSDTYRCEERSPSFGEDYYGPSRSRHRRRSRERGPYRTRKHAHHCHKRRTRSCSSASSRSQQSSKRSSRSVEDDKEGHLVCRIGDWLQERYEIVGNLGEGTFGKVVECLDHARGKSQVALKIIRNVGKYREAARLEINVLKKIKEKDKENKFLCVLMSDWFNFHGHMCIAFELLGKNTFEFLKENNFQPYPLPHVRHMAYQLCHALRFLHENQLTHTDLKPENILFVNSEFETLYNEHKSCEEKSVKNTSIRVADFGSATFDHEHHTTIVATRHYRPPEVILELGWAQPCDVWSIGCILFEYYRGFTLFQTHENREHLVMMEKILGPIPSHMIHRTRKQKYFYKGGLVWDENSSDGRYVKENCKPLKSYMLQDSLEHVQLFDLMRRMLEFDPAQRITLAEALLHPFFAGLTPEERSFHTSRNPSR

SMILES | ΔTm [°C]
O=C(Nc1cccc(Nc2cc(Nc3cccc(C(F)(F)F)c3)ncn2)c1)C1CC1 | 1.5
CN(c1cccnc1)c1cc2c(Nc3ccc(F)c(Cl)c3)c(C#N)cnc2cn1 | 1.2
COc1ccc(Cl)cc1NC(=O)Nc1cc(C)nc2ccccc12 | -0.1
O=C(Nc1cccc(Nc2nccc(Nc3cccc(C(F)(F)F)c3)n2)c1)C1CC1 [ANILINOPYRIMIDINE1] | 0.6

Target: Dual specificity protein kinase CLK2 (Homo sapiens) (UniProt P49760)

SMILES | ΔTm [°C]
O=C(Nc1cccc(Nc2cc(Nc3cccc(C(F)(F)F)c3)ncn2)c1)C1CC1 | 0.9
CN(c1cccnc1)c1cc2c(Nc3ccc(F)c(Cl)c3)c(C#N)cnc2cn1 | 4.3
COc1ccc(Cl)cc1NC(=O)Nc1cc(C)nc2ccccc12 | 0.6
O=C(Nc1cccc(Nc2nccc(Nc3cccc(C(F)(F)F)c3)n2)c1)C1CC1 [ANILINOPYRIMIDINE1] | 0.6

Target: Calcium/calmodulin-dependent protein kinase type II subunit alpha (Homo sapiens) (UniProt Q9UQM7)
Sequence (Q9UQM7 whole entry): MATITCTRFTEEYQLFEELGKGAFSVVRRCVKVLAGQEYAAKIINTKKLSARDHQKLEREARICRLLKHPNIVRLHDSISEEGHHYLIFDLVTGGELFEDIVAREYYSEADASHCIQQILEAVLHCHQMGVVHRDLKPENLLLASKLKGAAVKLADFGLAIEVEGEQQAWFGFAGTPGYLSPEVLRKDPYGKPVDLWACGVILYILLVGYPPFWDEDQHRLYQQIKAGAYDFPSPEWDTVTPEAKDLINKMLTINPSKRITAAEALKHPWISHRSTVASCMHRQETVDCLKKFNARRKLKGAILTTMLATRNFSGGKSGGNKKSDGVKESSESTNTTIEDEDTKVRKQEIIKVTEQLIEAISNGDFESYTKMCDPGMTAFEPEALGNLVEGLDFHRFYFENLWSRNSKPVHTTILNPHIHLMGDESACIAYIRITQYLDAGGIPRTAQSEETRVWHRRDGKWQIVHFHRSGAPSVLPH

SMILES | ΔTm [°C]
O=C(Nc1cccc(Nc2cc(Nc3cccc(C(F)(F)F)c3)ncn2)c1)C1CC1 | 1.8
CN(c1cccnc1)c1cc2c(Nc3ccc(F)c(Cl)c3)c(C#N)cnc2cn1 | 3.4
COc1ccc(Cl)cc1NC(=O)Nc1cc(C)nc2ccccc12 | -0.5
O=C(Nc1cccc(Nc2nccc(Nc3cccc(C(F)(F)F)c3)n2)c1)C1CC1 [ANILINOPYRIMIDINE1] | 0.3

Target: Mitogen-activated protein kinase 6 (Homo sapiens) (UniProt Q16659)
Sequence (Q16659 whole entry): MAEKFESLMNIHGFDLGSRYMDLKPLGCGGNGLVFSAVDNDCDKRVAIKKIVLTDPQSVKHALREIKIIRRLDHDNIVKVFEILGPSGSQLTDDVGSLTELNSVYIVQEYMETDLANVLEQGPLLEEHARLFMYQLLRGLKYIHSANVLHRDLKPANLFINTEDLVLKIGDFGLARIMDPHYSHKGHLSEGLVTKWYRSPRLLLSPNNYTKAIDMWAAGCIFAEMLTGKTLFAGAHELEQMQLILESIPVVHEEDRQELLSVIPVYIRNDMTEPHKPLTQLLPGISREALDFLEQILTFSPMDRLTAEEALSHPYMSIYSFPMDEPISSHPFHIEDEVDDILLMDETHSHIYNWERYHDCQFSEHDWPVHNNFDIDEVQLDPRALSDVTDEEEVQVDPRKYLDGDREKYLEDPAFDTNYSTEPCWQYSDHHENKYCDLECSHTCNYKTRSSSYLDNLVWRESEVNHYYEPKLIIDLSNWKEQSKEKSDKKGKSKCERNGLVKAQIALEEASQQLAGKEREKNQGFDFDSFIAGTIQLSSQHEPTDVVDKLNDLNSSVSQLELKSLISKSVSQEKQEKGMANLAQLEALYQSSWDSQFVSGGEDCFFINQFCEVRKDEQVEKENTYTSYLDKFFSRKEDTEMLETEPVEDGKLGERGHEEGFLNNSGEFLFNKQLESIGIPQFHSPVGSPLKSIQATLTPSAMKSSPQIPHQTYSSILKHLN

SMILES | ΔTm [°C]
O=C(Nc1cccc(Nc2cc(Nc3cccc(C(F)(F)F)c3)ncn2)c1)C1CC1 | 2.1
CN(c1cccnc1)c1cc2c(Nc3ccc(F)c(Cl)c3)c(C#N)cnc2cn1 | 4.2
COc1ccc(Cl)cc1NC(=O)Nc1cc(C)nc2ccccc12 | 2.1
O=C(Nc1cccc(Nc2nccc(Nc3cccc(C(F)(F)F)c3)n2)c1)C1CC1 [ANILINOPYRIMIDINE1] | 1.8

Target: Casein kinase I isoform gamma-1 (Homo sapiens) (UniProt Q9HCP0)
Sequence (Q9HCP0 whole entry, looked up, canonical isoform): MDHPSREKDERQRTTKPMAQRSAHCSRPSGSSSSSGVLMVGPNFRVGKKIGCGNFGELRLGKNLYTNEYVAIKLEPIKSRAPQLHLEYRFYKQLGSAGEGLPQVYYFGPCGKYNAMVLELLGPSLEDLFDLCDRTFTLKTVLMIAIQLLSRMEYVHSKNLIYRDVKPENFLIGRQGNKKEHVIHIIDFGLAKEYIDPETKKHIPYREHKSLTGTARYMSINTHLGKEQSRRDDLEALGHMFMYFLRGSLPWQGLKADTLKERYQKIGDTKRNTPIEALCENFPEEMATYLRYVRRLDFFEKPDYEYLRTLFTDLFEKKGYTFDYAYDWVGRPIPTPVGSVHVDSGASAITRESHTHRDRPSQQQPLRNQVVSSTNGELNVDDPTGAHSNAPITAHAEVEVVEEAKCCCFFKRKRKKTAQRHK

SMILES | ΔTm [°C]
O=C(Nc1cccc(Nc2cc(Nc3cccc(C(F)(F)F)c3)ncn2)c1)C1CC1 | 1
CN(c1cccnc1)c1cc2c(Nc3ccc(F)c(Cl)c3)c(C#N)cnc2cn1 | 1.4
COc1ccc(Cl)cc1NC(=O)Nc1cc(C)nc2ccccc12 | 1.4
O=C(Nc1cccc(Nc2nccc(Nc3cccc(C(F)(F)F)c3)n2)c1)C1CC1 [ANILINOPYRIMIDINE1] | 0.7

Target: TRAF2 and NCK-interacting protein kinase (Homo sapiens) (UniProt Q9UKE5)

ΔTm [°C] | SMILES
-0.2 | O=C(Nc1cccc(Nc2cc(Nc3cccc(C(F)(F)F)c3)ncn2)c1)C1CC1
-1.2 | CN(c1cccnc1)c1cc2c(Nc3ccc(F)c(Cl)c3)c(C#N)cnc2cn1

SMILES | ΔTm [°C]
O=C(Nc1cccc(Nc2nccc(Nc3cccc(C(F)(F)F)c3)n2)c1)C1CC1 [ANILINOPYRIMIDINE1] | 0.2

Target: Calcium/calmodulin-dependent protein kinase type II subunit beta (Homo sapiens) (UniProt Q13554)

SMILES | ΔTm [°C]
O=C(Nc1cccc(Nc2cc(Nc3cccc(C(F)(F)F)c3)ncn2)c1)C1CC1 | 2.9
CN(c1cccnc1)c1cc2c(Nc3ccc(F)c(Cl)c3)c(C#N)cnc2cn1 | 1.2
COc1ccc(Cl)cc1NC(=O)Nc1cc(C)nc2ccccc12 | 0.3
O=C(Nc1cccc(Nc2nccc(Nc3cccc(C(F)(F)F)c3)n2)c1)C1CC1 [ANILINOPYRIMIDINE1] | 1

Target: Serine/threonine-protein kinase OSR1 (Homo sapiens) (UniProt O95747)
Sequence (O95747 2-527 limits assumed): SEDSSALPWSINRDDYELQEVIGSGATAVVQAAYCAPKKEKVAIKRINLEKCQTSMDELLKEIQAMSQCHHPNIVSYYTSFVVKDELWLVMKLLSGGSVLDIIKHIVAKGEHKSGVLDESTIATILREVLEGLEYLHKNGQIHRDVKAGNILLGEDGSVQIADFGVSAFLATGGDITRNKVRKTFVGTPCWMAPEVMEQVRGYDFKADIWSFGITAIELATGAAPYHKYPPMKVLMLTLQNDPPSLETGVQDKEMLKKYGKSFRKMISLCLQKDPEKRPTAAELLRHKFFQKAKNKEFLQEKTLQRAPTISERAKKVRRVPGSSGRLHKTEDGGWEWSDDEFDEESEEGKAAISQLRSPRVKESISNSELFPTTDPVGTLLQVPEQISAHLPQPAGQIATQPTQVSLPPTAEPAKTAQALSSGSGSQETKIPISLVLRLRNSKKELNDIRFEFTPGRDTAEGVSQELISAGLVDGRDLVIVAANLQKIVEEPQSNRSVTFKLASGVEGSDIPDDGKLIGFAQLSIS

SMILES | ΔTm [°C]
O=C(Nc1cccc(Nc2cc(Nc3cccc(C(F)(F)F)c3)ncn2)c1)C1CC1 | 0.9
CN(c1cccnc1)c1cc2c(Nc3ccc(F)c(Cl)c3)c(C#N)cnc2cn1 | 0.3
COc1ccc(Cl)cc1NC(=O)Nc1cc(C)nc2ccccc12 | 0.6
O=C(Nc1cccc(Nc2nccc(Nc3cccc(C(F)(F)F)c3)n2)c1)C1CC1 [ANILINOPYRIMIDINE1] | 1.2

Target: Death-associated protein kinase 3 (Homo sapiens) (UniProt O43293)
Sequence (O43293 whole entry, looked up): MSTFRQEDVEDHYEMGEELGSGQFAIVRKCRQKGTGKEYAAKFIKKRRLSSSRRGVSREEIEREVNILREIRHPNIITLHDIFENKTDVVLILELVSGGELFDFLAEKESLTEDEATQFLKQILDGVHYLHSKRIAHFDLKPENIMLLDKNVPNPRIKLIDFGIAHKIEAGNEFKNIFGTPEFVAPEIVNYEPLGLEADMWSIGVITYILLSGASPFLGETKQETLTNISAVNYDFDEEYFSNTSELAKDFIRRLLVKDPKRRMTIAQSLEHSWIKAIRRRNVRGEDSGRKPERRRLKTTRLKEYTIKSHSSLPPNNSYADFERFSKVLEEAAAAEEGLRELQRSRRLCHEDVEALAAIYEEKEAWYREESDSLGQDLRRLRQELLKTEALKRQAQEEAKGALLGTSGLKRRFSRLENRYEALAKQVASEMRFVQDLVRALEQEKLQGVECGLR

SMILES | ΔTm [°C]
O=C(Nc1cccc(Nc2cc(Nc3cccc(C(F)(F)F)c3)ncn2)c1)C1CC1 | 2.1
CN(c1cccnc1)c1cc2c(Nc3ccc(F)c(Cl)c3)c(C#N)cnc2cn1 | 0.7
COc1ccc(Cl)cc1NC(=O)Nc1cc(C)nc2ccccc12 | 2.3
O=C(Nc1cccc(Nc2nccc(Nc3cccc(C(F)(F)F)c3)n2)c1)C1CC1 [ANILINOPYRIMIDINE1] | 6.5

Target: Mitogen-activated protein kinase 3 (Homo sapiens, UniProt P27361)
Sequence (P27361 whole entry): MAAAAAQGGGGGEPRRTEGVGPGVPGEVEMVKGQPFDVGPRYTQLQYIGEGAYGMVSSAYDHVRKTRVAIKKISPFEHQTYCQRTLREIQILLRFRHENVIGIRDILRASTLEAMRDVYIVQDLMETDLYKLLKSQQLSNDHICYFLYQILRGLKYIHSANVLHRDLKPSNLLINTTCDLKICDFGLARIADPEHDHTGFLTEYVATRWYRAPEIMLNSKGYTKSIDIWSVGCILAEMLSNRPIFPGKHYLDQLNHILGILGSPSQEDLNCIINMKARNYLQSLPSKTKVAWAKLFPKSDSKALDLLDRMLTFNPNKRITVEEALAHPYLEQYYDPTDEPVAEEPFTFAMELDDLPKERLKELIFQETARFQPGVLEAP

SMILES | ΔTm [°C]
O=C(Nc1cccc(Nc2cc(Nc3cccc(C(F)(F)F)c3)ncn2)c1)C1CC1 | 1.5
CN(c1cccnc1)c1cc2c(Nc3ccc(F)c(Cl)c3)c(C#N)cnc2cn1 | -1.9
COc1ccc(Cl)cc1NC(=O)Nc1cc(C)nc2ccccc12 | 2.5
O=C(Nc1cccc(Nc2nccc(Nc3cccc(C(F)(F)F)c3)n2)c1)C1CC1 [ANILINOPYRIMIDINE1] | 0.9
